Measured values published in a compilation of properties of binary mixtures (doi:10.1016/j.molliq.2017.11.153).

Experiment: xn = mol fraction of the nth substance listed
Conditions: 101 kPa

CC1COC(=O)O1 (configuration not stated) + CCCC[n+]1ccccc1.N#C[N-]C#N
x2 = 0
Conditions | viscosity [mPa·s]
288.15 K | 3.064
293.15 K | 2.738
298.15 K | 2.469
303.15 K | 2.24
308.15 K | 2.042
313.15 K | 1.873
323.15 K | 1.595
328.15 K | 1.464
338.15 K | 1.277
343.15 K | 1.195
348.15 K | 1.122
353.15 K | 1.056

CCCC[n+]1ccccc1.N#C[N-]C#N + CC1COC(=O)O1
Conditions | electrical conductivity [S/m] | viscosity [mPa·s]
288.15 K, x1 = 0.197 | 0.742 | 6.99
288.15 K, x1 = 0.3005 | 1.42 | 9.49
288.15 K, x1 = 0.4003 | 1.56 | 13.97
288.15 K, x1 = 0.4997 | 1.5 | 17.55
288.15 K, x1 = 0.6002 | 1.73 | 22.95
288.15 K, x1 = 0.7011 | 1.64 | 29.62
288.15 K, x1 = 0.7885 | 1.86 | 36.03
288.15 K, x1 = 0.9008 | 1.76 | 44.07
288.15 K, x1 = 1 | 1.05 | 51.49
293.15 K, x1 = 0.1003 | 0.749 | 4.23
293.15 K, x1 = 0.197 | 0.986 | 5.99
293.15 K, x1 = 0.3005 | 1.54 | 8.102
293.15 K, x1 = 0.4003 | 1.7 | 11.73
293.15 K, x1 = 0.6002 | 1.89 | 18.85
293.15 K, x1 = 0.7011 | 1.8 | 24.05
293.15 K, x1 = 0.7885 | 2.06 | 29.56
293.15 K, x1 = 0.9008 | 1.96 | 36.12
293.15 K, x1 = 1 | 1.24 | 41.05
298.15 K, x1 = 0.1003 | 0.979 | 3.756
298.15 K, x1 = 0.197 | 1.25 | 5.229
298.15 K, x1 = 0.4003 | 1.92 | 10
298.15 K, x1 = 0.4997 | 1.92 | 12.17
298.15 K, x1 = 0.6002 | 2.1 | 15.72
298.15 K, x1 = 0.9008 | 2.19 | 29.65
298.15 K, x1 = 1 | 1.48 | 33.27
303.15 K, x1 = 0.1003 | 1.18 | 3.361
303.15 K, x1 = 0.197 | 1.49 | 4.616
303.15 K, x1 = 0.4003 | 2.13 | 8.585
303.15 K, x1 = 0.4997 | 2.16 | 10.33
303.15 K, x1 = 0.7011 | 2.3 | 16.61
303.15 K, x1 = 0.7885 | 2.54 | 20.61
303.15 K, x1 = 0.9008 | 2.44 | 24.44
303.15 K, x1 = 1 | 1.75 | 27.62
308.15 K, x1 = 0.197 | 1.71 | 4.109
308.15 K, x1 = 0.4003 | 2.36 | 7.468
308.15 K, x1 = 0.4997 | 2.37 | 8.918
308.15 K, x1 = 0.6002 | 2.6 | 11.36
308.15 K, x1 = 0.7885 | 2.82 | 17.47
308.15 K, x1 = 0.9008 | 2.72 | 20.45
308.15 K, x1 = 1 | 2.01 | 22.9
313.15 K, x1 = 0.197 | 1.97 | 3.689
313.15 K, x1 = 0.4003 | 2.62 | 6.563
313.15 K, x1 = 0.4997 | 2.63 | 7.769
313.15 K, x1 = 0.6002 | 2.85 | 9.83
313.15 K, x1 = 0.7011 | 2.8 | 12.08
313.15 K, x1 = 0.7885 | 3.1 | 14.86
313.15 K, x1 = 0.9008 | 3 | 17.22
313.15 K, x1 = 1 | 2.26 | 19.3
318.15 K, x1 = 0.197 | 2.19 | 3.335
318.15 K, x1 = 0.3005 | 2.75 | 4.265
318.15 K, x1 = 0.4003 | 2.89 | 5.812
318.15 K, x1 = 0.4997 | 2.92 | 6.839
318.15 K, x1 = 0.6002 | 3.13 | 8.579
318.15 K, x1 = 0.7885 | 3.39 | 12.44
318.15 K, x1 = 0.9008 | 3.28 | 14.84
318.15 K, x1 = 1 | 2.54 | 16.73
323.15 K, x1 = 0.1003 | 2 | 2.291
323.15 K, x1 = 0.4003 | 3.17 | 5.183
323.15 K, x1 = 0.4997 | 3.27 | 6.066
323.15 K, x1 = 0.6002 | 3.42 | 7.559
323.15 K, x1 = 0.9008 | 3.6 | 12.65
323.15 K, x1 = 1 | 2.88 | 14.44
328.15 K, x1 = 0.1003 | 2.23 | 2.121
328.15 K, x1 = 0.197 | 2.71 | 2.794
328.15 K, x1 = 0.3005 | 3.33 | 3.481
328.15 K, x1 = 0.4003 | 3.48 | 4.656
328.15 K, x1 = 0.4997 | 3.61 | 5.42
328.15 K, x1 = 0.7011 | 3.77 | 8.083
328.15 K, x1 = 0.7885 | 4.05 | 9.34
328.15 K, x1 = 0.9008 | 3.93 | 11.05
333.15 K, x1 = 0.1003 | 2.43 | 1.968
333.15 K, x1 = 0.4003 | 3.83 | 4.209
333.15 K, x1 = 0.4997 | 3.94 | 4.876
333.15 K, x1 = 0.6002 | 4.07 | 6.001
333.15 K, x1 = 0.7885 | 4.4 | 8.312
333.15 K, x1 = 0.9008 | 4.29 | 9.53
338.15 K, x1 = 0.1003 | 2.64 | 1.834
338.15 K, x1 = 0.3005 | 4.02 | 2.906
338.15 K, x1 = 0.4003 | 4.17 | 3.827
338.15 K, x1 = 0.4997 | 4.3 | 4.429
338.15 K, x1 = 0.6002 | 4.43 | 5.401
338.15 K, x1 = 0.7011 | 4.53 | 6.433
338.15 K, x1 = 0.7885 | 4.78 | 7.324
338.15 K, x1 = 0.9008 | 4.68 | 8.488
338.15 K, x1 = 1 | 3.83 | 9.79
343.15 K, x1 = 0.1003 | 2.85 | 1.716
343.15 K, x1 = 0.197 | 3.42 | 2.232
343.15 K, x1 = 0.3005 | 4.37 | 2.675
343.15 K, x1 = 0.4003 | 4.53 | 3.498
343.15 K, x1 = 0.4997 | 4.68 | 4.039
343.15 K, x1 = 0.6002 | 4.83 | 4.891
343.15 K, x1 = 0.7885 | 5.21 | 6.724
343.15 K, x1 = 1 | 4.21 | 8.771
348.15 K, x1 = 0.1003 | 3.07 | 1.612
348.15 K, x1 = 0.197 | 3.69 | 2.089
348.15 K, x1 = 0.4003 | 4.92 | 3.213
348.15 K, x1 = 0.4997 | 5.12 | 3.704
348.15 K, x1 = 0.6002 | 5.3 | 4.454
348.15 K, x1 = 0.7885 | 5.72 | 6.247
348.15 K, x1 = 0.9008 | 5.61 | 6.724
348.15 K, x1 = 1 | 4.53 | 7.884
353.15 K, x1 = 0.1003 | 3.26 | 1.519
353.15 K, x1 = 0.197 | 3.93 | 1.964
353.15 K, x1 = 0.3005 | 5.11 | 2.296
353.15 K, x1 = 0.4997 | 5.58 | 3.414
353.15 K, x1 = 0.6002 | 5.79 | 4.076
353.15 K, x1 = 0.7011 | 5.98 | 4.787
353.15 K, x1 = 0.7885 | 6.29 | 5.647
353.15 K, x1 = 0.9008 | 6.14 | 6.159
353.15 K, x1 = 1 | 4.93 | 7.129
